We go through one compound from US20210032257A1, “(E)-1-(4-(DIMETHYLAMINO)BUT-2-ENOYL)PYRROLIDIN-3-YL 4-((3-ISOPROPYL-5-METHYLPYRAZOLO[1,5-A]PYRIMIDIN-7-YL)AMINO)PIPERIDINE-1-CARBOXYLATE FOR INHIBITING CDK7” (Eli Lilly and Company, priority 2017, published 2021).

The target of one test is T1, CDK9/CycT1 (Homo sapiens, UniProt P50750).
T1 construct: purchased ProQinase
In words: ProQinase WT Profiler radiometric protein kinase assay. Type of test: biochemical. To be noted: non standard IC50 from 4 concentrations, kinase 2.2 nM, ATP 1 μM. As for the experimental part:
(§1) Kinase inhibition profile of compound is determined by measuring residual activity values at four concentrations in singlicate in 320 wild-type protein kinase assays. The compounds are tested at 20 μM, 2 μM, 0.2 μM and 0.02 μM in singlicate. The final DMSO concentration in all reaction cocktails (including high and low controls) is 1%.
(§2) A radiometric protein kinase assay (33PANQINASE® Activity Assay, ProQinase) is used for measuring the kinase activity of the 320 protein kinases. All kinase assays are performed in 96-well FLASHPLATES™ in a 50 μL reaction volume. The reaction cocktail is pipetted in 4 steps in the following order:
(§3) All PKC assays (except the PKC-mu and the PKC-nu assay) additionally contain 1 mM CaCl2). 4 mM EDTA, 5 μg/mL Phosphatidylserine and 1 μg/mL 1,2-Dioleyl-glycerol. The CAMK1D, CAMK2A, CAMK2B, CAMK2D, CAMK2G, CAMK4, CAMKK1, CAMKK2, DAPK2, EEF2K, MYLK, MYLK2 and MYLK3 assays additionally contain 1 μg/mL Calmodulin and 0.5 mM CaCl2). The PRKG1 and PRKG2 assays additionally contain 1 μM cGMP. The DNA-PK assay additionally contained 2.5 μg/mL DNA.
(§4) The protein kinase reaction cocktails are incubated at 30° C. for 60 minutes. The reaction is stopped with 50 μL of 2% (v/v) H3PO4, plates are aspirated and washed two times with 200 μL 0.9% (w/v) NaCl. […] All protein kinase assays are performed with a BeckmanCoulter BIOMEK® 2000/SL robotic system. All protein kinases provided by ProQinase are expressed in Sf9 insect cells or in E. coli as recombinant GST-fusion proteins or His-tagged proteins, either as full-length or enzymatically active fragments. All kinases are produced from human cDNAs and purified by either GSH-affinity chromatography or immobilized metal. Affinity tags are removed from a number of kinases during purification. The purity of the protein kinases is examined by SDS-PAGE/Coomassie staining, the identity is checked by mass spectroscopy. Kinases from external vendors (CAR=Carna Biosciences Inc.; INV=Life Technologies (Invitrogen Corporation™); MIL=Merck-Millipore (Millipore Corporation™), see Table 1) are expressed, purified and quality-controlled by virtue of the vendors readings.
(§5) For each kinase, the median value of the cpm of three wells is defined as “low control” (n=3). This value reflects unspecific binding of radioactivity to the plate in the absence of a protein kinase but in the presence of the substrate. […] The difference between high and low control of each enzyme is taken as 100% activity. As part of the data evaluation, the low control of each kinase is subtracted from the high control value as well as from their corresponding “compound values”. The residual activity (in %) for each compound well is calculated by using the following formula: Res. Activity (%)=100×[(signal of compound−low control)/(high control−low control)]. Non Standard IC50s are calculated using a customized excel spreadsheet in conjunction with XLFit Add-in. Due to the low number of data points, (4) XL-Fit calculates a non standard IC50 using a four parametric equation where three parameters are locked to fixed values.
(§6) A: Minimum value of activity, Also known as Bottom. Fixed to 0 B: Maximum value of activity, Also known as Top. Fixed to 100 C: Inflexion point of the curve D: Hill Slope. Fixed to 1 Y: The dependent variable (i.e. what you measure as the signal) X: The independent variable (i.e. what you control, such as, dose, concentration, etc.)
(§7) The way to calculate the Non Standard IC50 is to assign random values to C parameter and repeat it iteratively. The algorithm then measures the differences in the sum of the residuals squared and will look for successive consecutive iterations where the change in the residuals is converging.

The target of a further test is T2, CDK1/CycB1 (Homo sapiens, UniProt P06493).
T2 construct: purchased ProQinase
T2 sequence (P06493 whole entry): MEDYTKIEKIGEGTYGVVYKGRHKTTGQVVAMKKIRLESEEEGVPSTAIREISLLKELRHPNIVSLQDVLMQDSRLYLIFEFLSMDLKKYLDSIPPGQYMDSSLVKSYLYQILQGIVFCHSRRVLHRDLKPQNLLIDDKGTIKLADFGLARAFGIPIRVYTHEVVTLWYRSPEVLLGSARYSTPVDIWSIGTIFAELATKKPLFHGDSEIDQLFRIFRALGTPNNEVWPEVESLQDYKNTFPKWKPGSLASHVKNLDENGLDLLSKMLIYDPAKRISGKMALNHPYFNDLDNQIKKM
T2 sequence (P14635 whole entry partner): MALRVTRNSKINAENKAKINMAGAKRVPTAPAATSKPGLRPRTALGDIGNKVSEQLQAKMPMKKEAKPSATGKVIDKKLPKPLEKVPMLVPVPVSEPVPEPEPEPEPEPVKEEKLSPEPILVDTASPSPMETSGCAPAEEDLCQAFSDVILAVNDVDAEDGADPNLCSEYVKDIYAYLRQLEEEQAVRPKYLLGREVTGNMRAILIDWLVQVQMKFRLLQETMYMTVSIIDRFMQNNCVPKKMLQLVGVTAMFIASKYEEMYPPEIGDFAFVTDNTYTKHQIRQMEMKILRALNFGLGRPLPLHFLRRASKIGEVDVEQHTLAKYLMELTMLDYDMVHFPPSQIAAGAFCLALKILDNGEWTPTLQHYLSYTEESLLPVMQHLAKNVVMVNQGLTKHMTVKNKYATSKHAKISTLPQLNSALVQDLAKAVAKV
The test is described as above. Type of test: biochemical. As to conditions: non standard IC50 from 4 concentrations, kinase 7 nM, ATP 1 μM. The method, then:
as §1, §2, §3, §4, §5, §6, §7

A further test deals with T3, CDK16/CycY (Homo sapiens, UniProt Q00536).
T3 construct: purchased ProQinase
T3 sequence (Q00536 whole entry): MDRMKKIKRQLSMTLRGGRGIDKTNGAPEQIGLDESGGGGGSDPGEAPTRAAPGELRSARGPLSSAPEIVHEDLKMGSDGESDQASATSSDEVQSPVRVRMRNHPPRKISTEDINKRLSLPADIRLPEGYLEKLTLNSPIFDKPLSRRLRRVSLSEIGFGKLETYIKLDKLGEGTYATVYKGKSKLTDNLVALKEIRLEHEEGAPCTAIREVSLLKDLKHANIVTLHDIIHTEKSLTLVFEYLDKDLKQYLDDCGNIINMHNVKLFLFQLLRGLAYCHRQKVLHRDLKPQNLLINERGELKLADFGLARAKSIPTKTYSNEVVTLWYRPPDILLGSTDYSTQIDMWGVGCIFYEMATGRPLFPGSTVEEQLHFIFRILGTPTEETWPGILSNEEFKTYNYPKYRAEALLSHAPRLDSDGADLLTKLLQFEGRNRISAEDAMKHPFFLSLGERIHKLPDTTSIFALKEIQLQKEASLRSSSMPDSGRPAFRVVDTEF
T3 sequence (Q8ND76 whole entry partner): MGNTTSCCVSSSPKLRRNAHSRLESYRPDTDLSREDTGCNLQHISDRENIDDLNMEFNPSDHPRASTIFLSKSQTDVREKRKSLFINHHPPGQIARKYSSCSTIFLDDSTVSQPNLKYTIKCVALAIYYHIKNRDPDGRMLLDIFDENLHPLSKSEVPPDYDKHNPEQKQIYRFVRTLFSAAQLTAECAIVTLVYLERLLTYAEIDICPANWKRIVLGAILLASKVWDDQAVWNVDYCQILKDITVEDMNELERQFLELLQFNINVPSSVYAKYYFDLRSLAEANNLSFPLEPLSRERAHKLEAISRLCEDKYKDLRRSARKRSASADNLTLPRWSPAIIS
The description is as above. Type of test: biochemical. As to conditions: non standard IC50 from 4 concentrations, kinase 3.2 nM, ATP 0.3 μM. As for the experimental part: as §1, §2, §3, §4, §5, §6, §7

The target in a further test is T4, CDK8/CycC (Homo sapiens, UniProt P49336).
T4 construct: purchased ProQinase
T4 sequence (P49336 whole entry): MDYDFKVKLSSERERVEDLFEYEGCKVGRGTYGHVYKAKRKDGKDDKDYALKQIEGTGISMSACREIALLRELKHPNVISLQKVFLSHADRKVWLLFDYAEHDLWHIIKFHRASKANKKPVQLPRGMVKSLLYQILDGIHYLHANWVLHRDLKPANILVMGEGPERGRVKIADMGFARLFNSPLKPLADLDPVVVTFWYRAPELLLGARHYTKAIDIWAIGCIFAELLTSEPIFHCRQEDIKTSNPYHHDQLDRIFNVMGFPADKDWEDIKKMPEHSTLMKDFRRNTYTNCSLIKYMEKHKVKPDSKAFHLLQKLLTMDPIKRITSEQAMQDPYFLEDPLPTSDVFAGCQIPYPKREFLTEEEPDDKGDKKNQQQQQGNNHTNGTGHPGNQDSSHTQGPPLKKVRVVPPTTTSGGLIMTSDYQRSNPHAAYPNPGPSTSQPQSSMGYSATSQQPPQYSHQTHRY
T4 sequence (P24863 whole entry partner): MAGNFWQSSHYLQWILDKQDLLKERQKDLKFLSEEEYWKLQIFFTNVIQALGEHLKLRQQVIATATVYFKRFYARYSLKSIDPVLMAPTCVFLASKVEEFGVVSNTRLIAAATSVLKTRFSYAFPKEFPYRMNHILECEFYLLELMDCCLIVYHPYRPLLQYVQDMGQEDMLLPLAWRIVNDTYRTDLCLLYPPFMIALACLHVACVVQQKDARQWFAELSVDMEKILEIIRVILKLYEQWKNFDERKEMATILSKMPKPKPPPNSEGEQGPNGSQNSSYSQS
Described as above. It counts as biochemical. As to conditions: non standard IC50 from 4 concentrations, kinase 8.3 nM, ATP 1 μM. The method, then: as §1, §2, §3, §4, §5, §6, §7

Another test addresses T5, CDK19/CycC (Homo sapiens, UniProt Q9BWU1).
T5 construct: purchased ProQinase
The test is described as above. It counts as biochemical. As to conditions: non standard IC50 from 4 concentrations, kinase 30.9 nM, ATP 3 μM. The method, then: as §1, §2, §3, §4, §5, §6, §7

For another test, the target named is T6, CDK4/CycD1 (Homo sapiens, UniProt P11802).
T6 construct: purchased ProQinase
T6 sequence (P11802 whole entry): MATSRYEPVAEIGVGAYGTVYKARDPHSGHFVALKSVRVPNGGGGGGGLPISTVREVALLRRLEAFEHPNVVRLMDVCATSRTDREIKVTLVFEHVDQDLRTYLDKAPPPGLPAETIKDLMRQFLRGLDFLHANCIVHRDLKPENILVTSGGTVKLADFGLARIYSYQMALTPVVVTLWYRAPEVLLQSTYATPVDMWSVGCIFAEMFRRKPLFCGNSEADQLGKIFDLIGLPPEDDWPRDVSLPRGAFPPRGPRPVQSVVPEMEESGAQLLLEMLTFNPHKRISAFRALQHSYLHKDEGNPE
T6 sequence (P24385 whole entry partner): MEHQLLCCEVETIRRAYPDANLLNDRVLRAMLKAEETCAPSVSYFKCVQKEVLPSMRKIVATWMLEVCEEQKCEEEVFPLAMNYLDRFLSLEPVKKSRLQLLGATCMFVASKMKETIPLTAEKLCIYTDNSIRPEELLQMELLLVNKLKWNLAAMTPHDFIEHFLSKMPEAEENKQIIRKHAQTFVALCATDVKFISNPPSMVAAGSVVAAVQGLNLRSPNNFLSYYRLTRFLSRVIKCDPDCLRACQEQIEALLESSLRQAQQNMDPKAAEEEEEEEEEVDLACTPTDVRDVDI
The test is described as above. It counts as biochemical. To be noted: non standard IC50 from 4 concentrations, kinase 3.3 nM, ATP 3 μM. As for the experimental part:
as §1, §2, §3, §4, §5, §6, §7

The next test concerns the target T7, CDK2/CycE1 (Homo sapiens, UniProt P24941).
T7 construct: purchased ProQinase
The description is as above. Type of test: biochemical. As to conditions: non standard IC50 from 4 concentrations, kinase 1.5 nM, ATP 1 μM. The method, then:
as §1, §2, §3, §4, §5, §6, §7

In another test the test system is cMyc in HCT116 cells. The test can be described thus: cMyc cell based Acumen assay. As to conditions: Homo sapiens, HCT-116, 4 hours, read-out: Relative IC50 for cMyc.

T1 sequence (P50750 whole entry): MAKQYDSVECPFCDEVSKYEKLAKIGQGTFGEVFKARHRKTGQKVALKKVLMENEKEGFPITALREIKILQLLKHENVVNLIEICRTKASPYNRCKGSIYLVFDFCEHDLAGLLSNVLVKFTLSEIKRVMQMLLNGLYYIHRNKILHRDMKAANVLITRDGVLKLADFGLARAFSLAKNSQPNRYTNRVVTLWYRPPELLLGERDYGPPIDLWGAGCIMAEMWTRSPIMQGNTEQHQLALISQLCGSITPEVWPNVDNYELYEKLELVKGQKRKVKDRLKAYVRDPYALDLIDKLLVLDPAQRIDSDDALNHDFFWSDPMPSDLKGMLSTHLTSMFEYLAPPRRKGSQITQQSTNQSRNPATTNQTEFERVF
T1 sequence (O60563 whole entry partner): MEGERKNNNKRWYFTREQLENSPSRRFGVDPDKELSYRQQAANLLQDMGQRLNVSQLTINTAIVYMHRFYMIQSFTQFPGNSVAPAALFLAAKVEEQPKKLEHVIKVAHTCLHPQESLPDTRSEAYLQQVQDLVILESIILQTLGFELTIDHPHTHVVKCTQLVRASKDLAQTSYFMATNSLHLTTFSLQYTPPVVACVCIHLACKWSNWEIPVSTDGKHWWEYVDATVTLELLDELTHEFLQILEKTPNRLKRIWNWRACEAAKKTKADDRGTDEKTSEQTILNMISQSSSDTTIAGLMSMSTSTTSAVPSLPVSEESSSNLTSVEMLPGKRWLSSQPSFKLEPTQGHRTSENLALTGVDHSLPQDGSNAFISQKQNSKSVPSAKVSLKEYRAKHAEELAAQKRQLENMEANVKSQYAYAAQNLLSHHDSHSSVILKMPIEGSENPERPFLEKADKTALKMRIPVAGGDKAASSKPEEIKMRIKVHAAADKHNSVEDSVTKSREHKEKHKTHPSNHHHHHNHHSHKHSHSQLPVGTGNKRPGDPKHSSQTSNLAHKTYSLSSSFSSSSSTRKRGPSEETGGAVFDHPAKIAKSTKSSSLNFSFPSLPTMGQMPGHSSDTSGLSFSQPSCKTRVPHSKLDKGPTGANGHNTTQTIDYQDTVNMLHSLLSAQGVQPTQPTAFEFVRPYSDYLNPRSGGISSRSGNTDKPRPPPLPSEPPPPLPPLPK
T5 sequence (Q9BWU1 whole entry): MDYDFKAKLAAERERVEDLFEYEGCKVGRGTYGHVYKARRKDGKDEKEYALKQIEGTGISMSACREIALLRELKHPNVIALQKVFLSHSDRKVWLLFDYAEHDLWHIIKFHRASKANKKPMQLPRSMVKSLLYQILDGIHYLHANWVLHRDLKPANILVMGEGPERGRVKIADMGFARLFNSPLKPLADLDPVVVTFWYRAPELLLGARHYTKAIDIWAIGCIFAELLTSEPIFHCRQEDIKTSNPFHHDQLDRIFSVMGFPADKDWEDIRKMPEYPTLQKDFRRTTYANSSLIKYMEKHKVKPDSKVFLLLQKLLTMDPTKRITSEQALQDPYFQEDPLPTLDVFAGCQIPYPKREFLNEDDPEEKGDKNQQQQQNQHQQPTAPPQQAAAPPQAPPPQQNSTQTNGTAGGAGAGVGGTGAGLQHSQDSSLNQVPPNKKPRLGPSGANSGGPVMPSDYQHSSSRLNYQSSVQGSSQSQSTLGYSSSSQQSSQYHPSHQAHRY
T5 sequence (P24863 whole entry partner): as the sequence (P24863 whole entry partner) above

Broadly, the IC50 is the concentration at which inhibition is half-maximal. On to `Cc1cc(NC2CCN(C(=O)O[C@H]3CCN(C(=O)/C=C/CN(C)C)C3)CC2)n2ncc(C(C)C)c2n1` [Example 1, [(3S)-1-[(E)-4-(dimethylamino)but-2-enoyl]pyrrolidin-3-yl] 4-[(3-isopropyl-5-methyl-pyrazolo[1,5-a]pyrimidin-7-yl)amino]piperidine-1-carboxylate], for which the 50% inhibitory concentration (IC50) is 6.32 µM against CDK9/CycT1; at least 20 µM on CDK1/CycB1; 9.07 µM at CDK16/CycY; 10.9 µM at CDK8/CycC; 7.41 µM against CDK19/CycC; 2.83 µM against CDK4/CycD1. Also, the IC50 against CDK2/CycE1 is at least 20 µM; in the test with cMyc in HCT116 cells, 0.0828 µM.
